Reference: patent publication US12497460B2, “Anti-MSR1 antibodies and methods of use thereof” (REGENERON PHARMACEUTICALS, INC., priority 2018, dated 2025)
Read-outs that look alike come from different tables or passages of the source. Marks after values point to notes of the source that are not given here.

Key:
[1] = test system: Msr1^hu/hu ApoE^−/− mice, peritoneal macrophages; test: LPS-mediated expression of CD80 on peritoneal macrophages (flow cytometry); assay type: in vivo, mouse; conditions: administered 2 hours before
Method: (§1) Assay protocol for ex vivo LPS-induced responses. In ex vivo LPS challenge experiments, mice were intraperitoneally administered with 10 μL/g of anti-MSR1 antibody-steroid conjugates (H1H21234N-N297Q-LP13), isotype control steroid conjugate (Isotype control-LP13), unconjugated anti-MSR1 antibody (H1H21234N-N297Q) and isotype control antibodies at different time points (24, 48, and 72 hours) prior to harvesting the peritoneal cells from peritoneal cavity. […] All mice were sacrificed at 0 hour time point and peritoneal cells were obtained from the peritoneum by the peritoneal lavage technique. In brief, 5 mL of ice cold 1×PBS (ThermoFisher Scientific, Cat #20012027) containing 2% BSA (Gibco, Cat #A9576) and 0.6 mM EDTA (ThermoFisher Scientific, Cat #15575020) were injected into the peritoneal cavity using 27 g needle. […] The resuspended cells were plated at 500,000 cells per well in 24-well tissues culture plates and incubated with or without 10 ng/mL of LPS for 18 hours.
Assay protocol for in vivo LPS-induced responses. In in vivo LPS challenge experiments, mice were intraperitoneally administered with 10 μL/g of decreasing concentrations of anti-MSR1 antibody-steroid conjugates (H1H21234N-N297Q-LP13) and isotype control steroid conjugate (Isotype control-N297Q-LP13) at 24 hours prior to in vivo LPS challenge. PBS and free steroid P4 were intraperitoneally injected at 2 hours prior to in vivo LPS challenge. At 0 hour time point, three large drops of blood (volume ˜ 100 μL) were collected from the maxillary vein of each mouse into serum gel separator tubes. The tubes were centrifuged at 2200-2500 rpm for 15 minutes, and the serum was collected into 96-well plates for subsequent measurement of cytokines. At 18 hours post in vivo LPS challenge, the peritoneal cells were obtained from periotenal cavity as aforementioned for subsequent flow cytometry analysis.
Analysis of expression of activation markers on peritoneal macrophages after LPS ex vivo challenge. Upon collection of supernatants for cytokine analysis, the plates were washed twice with 1×PBS w/o Ca^++/Mg2^++ (ThermoFisher Scientific, Cat #14190144), and the adherent peritoneal cells were harvested by addition of 250-300 μL of cold Macrophage Detachment Solution DXF (PromoCell, Cat #C41330) for 40 minutes. The detached cells were collected into 50-mL tubes and centrifuged at 350×g for 15 minutes. After two washes with 1×PBS supplemented with 2 mM EDTA, the cells were resuspended in Cell Staining Buffer (Biolegend, #420201) and plated at 1×10^6 cells per well in a 96-well V bottom plate. […] Data were analyzed using FlowJo (Tree Star).

[2] = test system: Msr1^hu/hu ApoE^−/− mice, peritoneal cells; test: Ex vivo LPS-induced cytokine production by peritoneal cells after in vivo dosing; design: species or system mouse; conditions: administered 2 hours before peritoneal cell isolation; ex vivo LPS
Method: To examine the anti-inflammatory effect of the anti-MSR1 antibody-steroid conjugates, an ex-vivo and in vivo LPS-induced inflammatory immune response model was performed.
Generation of a mouse inflammatory immune response model. Mice homozygously expressing human MSR1 extracellular domain in place of the mouse MSR1 extracellular domain and with a homozygous deletion of the ApoE gene were utilized (resulting mice referred to as Msr1^hu/hu ApoE^−/− mice).
as §1
Measurement of cytokines at 18 hours post-LPS ex vivo challenge. Supernatants were collected into 96-well round bottom tissue culture plates at 18 hours post-ex vivo LPS challenge and stored at […] until further analysis. Cytokine concentrations in the supernatants were measured using a Proinflammatory Panel 1 (mouse) multiplex immunoassay kit (MesoScale Diagnostics, Cat #K15048D) according to manufacturer's instructions. Electrochemiluminescence was read on a Meso Scale Diagnostics SECTOR® instrument. Data analysis was performed using GraphPad Prism™ software. Statistical significance within the groups was determined by one-way Anova with Turkey's multiple comparison post-test (*p<0.01; **p<0.001; ***p<0.0001).

[3] = test system: LPS-induced IL-1β release in differentiated THP-1 cells; test: LPS-mediated IL-1β release assay; assay type: cell-based, human; conditions: for IC50: Homo sapiens, 100 ng/ml LPS for 5 hours, read-out: IC50, inhibition of LPS-induced IL-1β secretion
Method: To test the anti-inflammatory properties of anti-MSR1 antibody-steroid conjugates in vitro, a lipopolysaccharide (LPS)-mediated IL-1β release assay was performed. For the assay, THP-1 cells were seeded onto 96 well plates at 40,000 cells/well in media containing RPMI supplemented with 10% FBS and pencillin/streptomycinin and differentiated with 200 nM Phorbol Myristate Acetate (PMA) for 3 days. After the 3-day differentiation period, three-fold serial dilutions of antibody drug conjugates, unconjugated antibodies, or free payloads in fresh media were added to the cells at final concentration ranging from 100 nM to 0.01 nM. Media alone served as a blank control. Subsequently at 24, 48, or 72 hours later, cells were treated with 100 ng/ml LPS (InVivoGen, Cat #tlrl-eklps) for 5 hours. The cell media was then collected, and IL-1β levels were measured using a V-PLEX Proinflammatory Panel 1 human kit (Meso Scale Diagnostics, Cat #15049D-2) as per manufacturer's instructions. Subsequently, the plate was read on a Meso Scale Diagnostics instrument.
IC50 values were determined from a four-parameter logistic equation over a 10-point response curve (GraphPad Prism). All IC50 values are expressed in M (molar) concentration. The IC50 values and IL-1β amount at the maximum concentration of antibody-steroid conjugates or controls are shown in Table 22 each of the time point tested.

[4] = test system: hMSR1/ApoE-KO mice; test: Anti-type II collagen antibody-induced arthritis (CAIA), clinical scores; assay type: in vivo, mouse
Method: An MSR1-non-cytotoxic antibody drug (ncADC) conjugate was tested in anti-type II collagen antibody-induced arthritis (CAIA) in vivo; cytokine detection in inflamed joints using Proinflammatory Panel 1 (mouse) Multiplex Immunoassay kit (MSD)
To further examine the anti-inflammatory effect of the anti-MSR1 Ab-steroid ncADC, the ncADC was evaluated in a collagen-antibody induced arthritis (CAIA) model in vivo. For the model, mice homozygously expressing human MSR1 extracellular domain and transmembrane domain in place of mouse MSR1 extracellular and transmembrane domains (humanized MSR1) and with a homozygous deletion of the ApoE gene (ApoE-KO) were utilized (resulting mice referred to as hMSR1/ApoE-KO mice).
(§2) To induce CAIA, hMSR1/ApoE-KO mice were intraperitoneally injected with an 8 mg/kg mixture of five anti-type II collagen mAbs (Chondrex, Cat #53100, Lot #180140) on day 0, followed by intraperitoneal administration with 50 μg lipopolysaccharide (LPS; 0111:B4; Chondrex, Cat #53100, Lot #180141) on day 3. Severity of the […] levels of arthritis was graded up to 13 days after mAb injection in each of the four limbs per mouse on a […]. The criteria for the grading were as follows: 0, normal; 1, mild redness and swelling of ankle/wrist or individual digits; 2, moderate redness and swelling of ankle/wrist; 3, severe redness and swelling of the entire paw including the digits; 4, maximal swelling in limbs involving multiple joints. The maximum value of the sum of the scores obtained from the four limbs of each mouse was 16. […] PBS, unconjugated anti-MSR1 Ab (H1H21234N-N297Q) and free steroid payload (P4-1), were intraperitoneally injected every other day or daily (referred to as P4-1 ED). All mice were sacrificed on day 13 and inflamed patella were collected for subsequent homogenization and cytokine detection.

[5] = test system: hMSR1/ApoE-KO mice; test: CAIA, pro-inflammatory cytokines in joint homogenates; assay type: in vivo, mouse
Method: as §2
Inflamed knee patella were collected in 2 mL microcentrifuge tubes containing two tungsten carbide beads (Qiagen, Cat #69997) and 500 μL of T-per buffer (Thermo Scientific, Cat #78510, Lot #QF217759) containing protease inhibitor cocktail and 0.5M EDTA (Thermo Scientific, Cat #78444, Lot #RF231047). Tissues were disrupted at the frequency of 30s^−1 for 10 minutes using Qiagen Tissue Lyser II, centrifuged at 14,000 rpm for 7 minutes, and then supernatants were collected without disturbing the pellet. Cytokine concentrations in the supernatants were measured using a Proinflammatory Panel 1 (mouse) multiplex immunoassay kit (MesoScale Discovery, Cat #K15048D) according to the manufacturer's instructions. In brief, 50 μL/well of calibrators and samples (diluted in Diluent 41) were added to the plates pre-coated with capture antibodies and incubated at room temperature while shaking at 700 rpm for 2 hours. The plates were then washed 3 times with 1×PBS containing 0.05% (w/v) Tween-20, followed by the addition of 25 μL of Detection Antibody Solution diluted in Diluent 45. After 2-hour incubation at room temperature while shaking, the plates were washed 3 times, and 150 μL of 2× Read Buffer was added to each well. Electrochemiluminescence was immediately read on MSD Spector© instrument. Cytokine concentrations were normalized per total protein content in tissue homogenates measured using Bradford protein assay (BioRad, Cat #5000006, Lot #64144266). Data analysis was performed using GraphPad Prism™ software. Statistical significance within the groups was determined by one-way Anova with Turkey's multiple comparison post-test (*p<0.01; **p<0.001; ***p<0.0001).

[6] = joint homogenates, 2.95 mg/kg every 2 days

Structure (SMILES): C[C@@H]1C[C@H]2[C@@H]3CCC4=CC(=O)C=C[C@]4(C)[C@@]3(F)[C@@H](O)C[C@]2(C)[C@@]1(O)C(=O)CO [Dexamethasone, dexamethasone, reference compound]
- LPS-mediated expression of CD80, pMΦ Cells ([1]; hMSR1+F4/80+CD11b+ peritoneal macrophages): 77.69 ± 2.6 % relative to PBS/LPS-treatment
- LPS-mediated expression of CD80, non-pMΦ Cells ([1]; hMSR1−F4/80−CD11b− cells): 99.6 ± 5.8 % relative to PBS/LPS-treatment
- Cytokine IL-6 [2]: 134.5 ± 18.2* ng/mL
- Cytokine KC-GRO [2]: 19.9 ± 1.5 ng/mL
- Cytokine TNF-α [2]: 0.63 ± 0.11* ng/mL
- IL1beta released at max concentration tested ([3]; 24 hour treatment before LPS): 45.33 pg/mL
- IL1beta released at max concentration tested ([3]; 48 hour treatment before LPS): 11.8 pg/mL
- IL1beta released at max concentration tested ([3]; 72 hour treatment before LPS): 13.34 pg/mL
- IC50 ([3]; THP-1, 24-hour time point): 0.42 nM
- IC50 ([3]; THP-1, 48-hour time point): 0.794 nM
- IC50 ([3]; THP-1, 72-hour time point): 0.543 nM

Structure (SMILES): CCC[C@@H]1O[C@@H]2C[C@H]3[C@@H]4C[C@H](F)C5=CC(=O)C=C[C@]5(C)[C@@]4(F)[C@@H](O)C[C@]3(C)[C@]2(C(=O)CN)O1 [P4-1, (1S,2S,4R,6R,8S,9S,11S,12R,13S,19S)-8-(2-Aminoacetyl)-12,19-difluoro-11-hydroxy-9,13-dimethyl-6-propyl-5,7-dioxapentacyclo[10.8.0.0^2,9.0^4,8.0^13,18]icosa-14,17-dien-16-one]
- Clinical Score ([4]; 2.95 mg/kg, every 2 days d6-d12): 9.4 ± 2.46
- inhibition of CAIA ([4]; dosed every day (P4-1ED), compared with H1H21234N-N297Q-P4-3 at 21 mg/kg): Comparable inhibition of CAIA
- severity of CAIA (clinical scores) ([4]; every other day): did not attenuate CAIA
- pro-inflammatory cytokine levels in inflamed joints ([5]; administered every other day): No effect
- Cytokines IL-1β [5, 6]: 20.6 ± 4.3 pg per mg of total protein
- Cytokines IL-6 [5, 6]: 131.4 ± 40.9 pg per mg of total protein
- Cytokines KC-GRO [5, 6]: 8.9 ± 9 pg per mg of total protein
- Cytokines TNF-α [5, 6]: 8.3 ± 1.9 pg per mg of total protein
